How the values were obtained:
[1] = tested on: primary dopaminergic neurons; experiment: MPP+ exposure in dopaminergic neurons; format: cell-based, rat; details: 10 μM MPP+ 60 minutes, control 100, MPP+ alone 56.6
Experimental: Primary dopaminergic neurons were isolated from E15 rat embryos as described in Pong K., et al., (1997) J. Neurochem. 69 986-994. Briefly, the ventral mesencephalon was isolated and tissue was pooled in ice-cold phosphate buffer saline (PBS) without Ca^2+ and Mg^2+. The tissue was transferred to an enzymatic dissociation media containing 20 IU/ml papain in Earle's balanced salt solution (Worthington Biochemical, Freehold, N.J.) and incubated for 30 minutes at 37° C. After enzymatic dissociation, the papain solution was aspirated and the tissue mechanically triturated with a fire-polished Pasteur pipette in complete media [Neurobasal Medium with B-27 supplement (Gibco, Grand Island, N.Y.), penicillin/streptomycin, aphidicolin, glutamate] containing 2,000 IU/ml DNase and 10 mg/ml ovomucoid protease inhibitor. Single-cell suspensions in complete media were plated on pre-coated poly-L-ornithine/laminin 24-well plates (Becton-Dickinson, Bedford, Mass.) at a density of 5.0×10^5 cells/well. Cells were maintained for one week prior to experimentation.
Cultures were exposed to 10 μM MPP^+ for 60 minutes. After the exposure, fresh media was exchanged and fresh compound was added. Dopaminergic neuron viability was determined 24 hours later by measuring ^3H-dopamine uptake as described in Pong et al., 1997, supra.

[2] = tested on: experimental autoimmune encephalomyelitis (EAE); experiment: Experimental autoimmune encephalomyelitis (EAE) model of multiple sclerosis; format: in vivo, mouse
Experimental: Six groups of B6 mice were immunized with MOG/CFA and injected with pertussis toxin to induce experimental autoimmune encephalomyelitis (EAE), an animal model of Multiple sclerosis. Three groups of mice were treated with vehicle, 4-{3-[1-benzhydryl-5-chloro-2-(2-{[(2,6-dimethylbenzyl)sulfonyl]amino}ethyl)-1H-indol-3-yl]propyl}benzoic acid (Compound A), or 4-{2-[1-benzhydryl-5-chloro-2-(2-{[(3,4-dichlorobenzyl)sulfonyl]amino}-ethyl)-1H-indol-3-yl]ethoxy}benzoic acid (Compound B) from the day of Immunization (orally, 100 mg/kg, twice/day). Another three groups of mice were treated with vehicle, Compound A or Compound B starting on the day of EAE onset (day 15) (orally, 100 mg/kg, twice/day). […] The results are shown in the Table below, wherein mean clinical score is a mean of clinical evaluation of each animal for that particular day.
Animals are Scored as Follows:
• 0—no clinical signs of EAE (no paralysis) • 1—paralysis of tail • 2—paralysis of tail and partial hind leg paralysis • 3—paralysis of tail and complete hind leg paralysis • 4—paralysis of tail, complete hind leg paralysis and a partial front leg paralysis • 5—moribund animal (all four limbs paralyzed, lack of responsiveness, these mice were immediately euthanized).
In addition, the compounds of Examples 14 and 25 were also found to be efficacious in the mouse experimental autoimmune encephalomyelitis (EAE) model of multiple sclerosis. As shown by the data in the Table below, these compounds led to a delayed onset of disease and reduced severity of disease when administered orally in doses as low as 2.5 mg/kg.

CFA-induced hyperalgesia = CFA-induced hyperalgesia model; format: in vivo, rat; details: 6 hours after CFA
From the text: The sensitivity of peripheral sensory neurons can be enhanced such that they respond to both noxious and non-noxious stimuli resulting in chronic pain (See Julius, D. et al., Nature. 2001; 413:203; Woolf, C. J., et al., Science. […]; 288:1765). Prostaglandins and leukotrienes at the site of inflammation and tissue damage are partially responsible for this potentiation of the pain response. Prostaglandins promote the phosphorylation of ion channels, increasing the excitability and lowering the pain threshold of sensory neurons. Analogously, leukotriene B4 and related arachidonate metabolites of 12-LO bind to and activate the capsaicin receptor (or VR1) ion channel on neurons that respond to heat and low pH (See Piomelli D., TRENDS in Pharmacological Sciences, January 2001; 22(1):17-29). The effect of the compound of Example 10 was measured in the CFA-induced hyperalgesia model, and lipid mediator production was measured at peripheral and central sites.
The animals were dosed with vehicle, the compound of Example 10, naproxen or celecoxib, and then CFA was immediately injected into the hind footpad. To assess hyperalgesia, pressure was applied to the left hind paw at a slow and constant rate using a digital force gauge. Measurements were taken at 0 and 6 hours. The application of the force was stopped when the animal vocalized, or struggled. Readings were taken prior to dosing and CFA injection, and repeated six hours after the CFA injection. Two independent experiments were run and the data were analyzed separately.
The paws were collected at the end of each experiment (6 hours) and the levels of PGE2, LTB4 and TXB2 were measured in the exudates.

SMILES: O=C(O)c1ccc(OCCc2c(CCNS(=O)(=O)Cc3ccc(Cl)c(Cl)c3)n(C(c3ccccc3)c3ccccc3)c3ccc(Cl)cc23)cc1 [Compound B, 4-{2-[1-benzhydryl-5-chloro-2-(2-{[(3,4-dichlorobenzyl)sulfonyl]amino}-ethyl)-1H-indol-3-yl]ethoxy}benzoic acid]
- dopaminergic neuron viability (3H-dopamine uptake), Avg. ([1]; 0.3 μM): 74
- dopaminergic neuron viability (3H-dopamine uptake), Avg. ([1]; 1 μM): 71.6
- dopaminergic neuron viability (3H-dopamine uptake), Avg. ([1]; 3 μM): 78.6
- dopaminergic neuron viability (3H-dopamine uptake), Avg. ([1]; 10 μM): 83.2
- mean clinical score ([2]; 100 mg/kg orally twice/day from EAE onset (day 15), day 11 after immunization): 0
- mean clinical score ([2]; 100 mg/kg orally twice/day from EAE onset (day 15), day 12 after immunization): 0
- mean clinical score ([2]; 100 mg/kg orally twice/day from EAE onset (day 15), day 13 after immunization): 0
- mean clinical score ([2]; 100 mg/kg orally twice/day from EAE onset (day 15), day 14 after immunization): 0
- mean clinical score ([2]; 100 mg/kg orally twice/day from EAE onset (day 15), day 15 after immunization): 0.10
- mean clinical score ([2]; 100 mg/kg orally twice/day from EAE onset (day 15), day 16 after immunization): 0.45
- mean clinical score ([2]; 100 mg/kg orally twice/day from EAE onset (day 15), day 17 after immunization): 0.80
- mean clinical score ([2]; 100 mg/kg orally twice/day from EAE onset (day 15), day 18 after immunization): 1.05
- mean clinical score ([2]; 100 mg/kg orally twice/day from EAE onset (day 15), day 19 after immunization): 1.10
- mean clinical score ([2]; 100 mg/kg orally twice/day from EAE onset (day 15), day 20 after immunization): 1.00
- mean clinical score ([2]; 100 mg/kg orally twice/day from EAE onset (day 15), day 21 after immunization): 1.20
- mean clinical score ([2]; 100 mg/kg orally twice/day from EAE onset (day 15), day 22 after immunization): 1.10
- mean clinical score ([2]; 100 mg/kg orally twice/day from EAE onset (day 15), day 23 after immunization): 1.40
- mean clinical score ([2]; 100 mg/kg orally twice/day from EAE onset (day 15), day 24 after immunization): 1.35
- mean clinical score ([2]; 100 mg/kg orally twice/day from EAE onset (day 15), day 25 after immunization): 1.25
- mean clinical score ([2]; 100 mg/kg orally twice/day from EAE onset (day 15), day 26 after immunization): 1.40
- mean clinical score ([2]; 100 mg/kg orally twice/day from EAE onset (day 15), day 27 after immunization): 1.55
- mean clinical score ([2]; 100 mg/kg orally twice/day from day of immunization (Day 1), day 11 after immunization): 0
- mean clinical score ([2]; 100 mg/kg orally twice/day from day of immunization (Day 1), day 12 after immunization): 0
- mean clinical score ([2]; 100 mg/kg orally twice/day from day of immunization (Day 1), day 13 after immunization): 0
- mean clinical score ([2]; 100 mg/kg orally twice/day from day of immunization (Day 1), day 14 after immunization): 0
- mean clinical score ([2]; 100 mg/kg orally twice/day from day of immunization (Day 1), day 15 after immunization): 0
- mean clinical score ([2]; 100 mg/kg orally twice/day from day of immunization (Day 1), day 16 after immunization): 0
- mean clinical score ([2]; 100 mg/kg orally twice/day from day of immunization (Day 1), day 17 after immunization): 0.06
- mean clinical score ([2]; 100 mg/kg orally twice/day from day of immunization (Day 1), day 18 after immunization): 0.06
- mean clinical score ([2]; 100 mg/kg orally twice/day from day of immunization (Day 1), day 19 after immunization): 0.11
- mean clinical score ([2]; 100 mg/kg orally twice/day from day of immunization (Day 1), day 20 after immunization): 0.39
- mean clinical score ([2]; 100 mg/kg orally twice/day from day of immunization (Day 1), day 21 after immunization): 0.44
- mean clinical score ([2]; 100 mg/kg orally twice/day from day of immunization (Day 1), day 22 after immunization): 0.50
- mean clinical score ([2]; 100 mg/kg orally twice/day from day of immunization (Day 1), day 23 after immunization): 0.67
- mean clinical score ([2]; 100 mg/kg orally twice/day from day of immunization (Day 1), day 24 after immunization): 0.56
- mean clinical score ([2]; 100 mg/kg orally twice/day from day of immunization (Day 1), day 25 after immunization): 0.56
- mean clinical score ([2]; 100 mg/kg orally twice/day from day of immunization (Day 1), day 26 after immunization): 0.56
- mean clinical score ([2]; 100 mg/kg orally twice/day from day of immunization (Day 1), day 27 after immunization): 0.72
- prevention of EAE / reduction of clinical severity ([2]; administered from the time of immunization, or in mice with or close to EAE): can prevent EAE

SMILES: COc1ccc2cc([C@H](C)C(=O)O)ccc2c1 [naproxen, reference compound]
- LTB4 levels in paw exudates (CFA-induced hyperalgesia): increased
- TXB2 levels in paw exudates (CFA-induced hyperalgesia): greater than the inhibition with celecoxib
- PGE2 levels in paw exudates (CFA-induced hyperalgesia; Example 10 at 25 mg/kg): significantly inhibited

From patent US8283373B2, “Inhibitors of cytosolic phospholipase A2” (Pfizer Inc., priority 2005, dated 2012)
